Experimental data: patent US20260345574A1, “POTENT AND SELECTIVE IRREVERSIBLE INHIBITORS OF IRAK1” (Dana-Farber Cancer Institute, Inc., priority 2022, published 2026)

Legend:
IRAK1 = IRAK1 (Homo sapiens, UniProt P51617); assay: Adapta Universal Kinase Assay (ThermoFisher) against IRAK1; type: biochemical; details: Histone H3 (1-20) peptide substrate, 60 minutes at room temperature
Protocol: To measure the IC50 values of the compounds herein against IRAK1, the Adapta Universal Kinase Assay (ThermoFisher) was used. Briefly, 100 nL of different concentrations of the compounds in 100% DMSO were added to each well of a 384-well plate (Corning Cat. #4512). 2.4 μL of 30 mM HEPES, 2.5 μL of 4× ATP solution (in water), and 5 μL of 2× IRAK1/Histone H3 (1-20) peptide mixture (prepared in 50 mM HEPES pH 7.5, 0.01% BRIJ-35, 10 mM MgCl2, 1 mM EGTA) were added to each well. The plate was shaken for 30 seconds and centrifuged for 1 minute at 1000×g. The plate was then incubated at room temperature for 60 minutes. 5 μL of Detection Mix was added to each well. The plate was shaken for 30 seconds and centrifuged for 1 minute at 1000×g. The plate was then incubated at room temperature for 60 minutes. The plate was subsequently read on a fluorescence plate reader, and the emissions ratio was calculated to determine the ratio of ATP to ADP. Emissions Ratio=AF647 Emission (665 nm)/Europium Emission (615 nm).

IRAK4 = molecular target: T1, IRAK4 (Homo sapiens, UniProt Q9NWZ3); assay: Z'-LYTE assay (ThermoFisher) against IRAK4; type: biochemical; details: Ser/Thr 07 substrate, 60 minutes at room temperature
T1 sequence (Q9NWZ3 1-460): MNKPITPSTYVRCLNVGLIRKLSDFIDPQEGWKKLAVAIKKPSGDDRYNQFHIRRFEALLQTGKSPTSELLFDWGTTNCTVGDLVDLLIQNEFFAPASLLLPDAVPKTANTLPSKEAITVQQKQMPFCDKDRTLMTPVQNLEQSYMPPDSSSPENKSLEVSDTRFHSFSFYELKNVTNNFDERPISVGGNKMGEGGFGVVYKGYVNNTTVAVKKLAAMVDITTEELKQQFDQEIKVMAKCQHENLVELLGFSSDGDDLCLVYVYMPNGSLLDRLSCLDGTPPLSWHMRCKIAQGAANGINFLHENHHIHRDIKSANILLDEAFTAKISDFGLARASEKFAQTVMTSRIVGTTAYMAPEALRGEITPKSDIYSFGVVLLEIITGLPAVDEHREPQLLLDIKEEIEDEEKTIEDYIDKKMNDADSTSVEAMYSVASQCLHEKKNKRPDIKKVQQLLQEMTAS
Protocol: To measure the IC50 values of compounds herein against IRAK4, a Z′-LYTE assay (ThermoFisher) was used. Briefly, 2.5 μL of different concentrations of the compounds in 1% DMSO were added to 2.4 μL kinase buffer (50 mM HEPES pH 7.5, 0.01% BRIJ-35, 10 mM MgCl2, 1 mM EGTA) in each well of a 384-well plate (Corning Cat. #3676). 5 μL of 2× IRAK4/Ser/Thr 07 mixture (prepared in 50 mM HEPES pH 7.5, 0.01% BRIJ-35, 10 mM MnCl2, 2 mM DTT, and 0.02% NaN3) and 2.5 μL of 4× ATP solution (4× ATP, 50 mM HEPES, pH 7.5, 0.01% BRIJ-35, 10 mM MgCl2, 1 mM EGTA) were added to each well. The plate was shaken for 30 seconds, and then incubated at room temperature for 60 minutes. 5 μL of a 1:100000 dilution of Development Reagent A was added to each well. The plate was shaken for 30 seconds and incubated for 60 minutes at room temperature. The plate was subsequently read on a fluorescence plate reader, and the emissions ratio was calculated to determine the ratio of Ser/Thr 07 phosphorylated by the reaction. Emissions Ratio=Coumarin Emission (443 nm)/Flourescein Emission (520 nm).

Sequence of IRAK1 (P51617 whole entry): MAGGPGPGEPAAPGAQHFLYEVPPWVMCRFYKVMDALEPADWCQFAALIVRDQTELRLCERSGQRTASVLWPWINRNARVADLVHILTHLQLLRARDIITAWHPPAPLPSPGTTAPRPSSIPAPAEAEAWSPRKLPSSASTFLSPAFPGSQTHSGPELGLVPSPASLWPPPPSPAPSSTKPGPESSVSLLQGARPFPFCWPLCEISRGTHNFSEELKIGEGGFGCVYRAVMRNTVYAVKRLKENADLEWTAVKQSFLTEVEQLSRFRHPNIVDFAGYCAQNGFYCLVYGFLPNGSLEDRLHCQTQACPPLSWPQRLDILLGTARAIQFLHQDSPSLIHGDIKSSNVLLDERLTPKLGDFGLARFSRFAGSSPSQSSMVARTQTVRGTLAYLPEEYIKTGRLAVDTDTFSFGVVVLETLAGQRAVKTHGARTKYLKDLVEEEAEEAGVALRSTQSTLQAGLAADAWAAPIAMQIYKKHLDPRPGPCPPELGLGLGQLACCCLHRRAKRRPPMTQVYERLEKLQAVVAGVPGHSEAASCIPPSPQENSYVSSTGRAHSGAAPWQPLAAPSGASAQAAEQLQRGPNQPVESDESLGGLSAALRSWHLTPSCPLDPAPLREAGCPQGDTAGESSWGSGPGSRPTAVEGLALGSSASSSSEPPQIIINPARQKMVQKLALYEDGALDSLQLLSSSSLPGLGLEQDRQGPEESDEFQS

Row | SMILES | IC50 (IRAK1) [nM] | IC50 (IRAK4) [nM]
1 | C=CC(=O)N1CCC[C@H](c2nc(-c3ccc(NC(=O)c4cccc(-c5ccn[nH]5)n4)c(Cl)c3)no2)C1 [Compound 079, (S)-N-(4-(5-(1-acryloylpiperidin-3-yl)-1,2,4-oxadiazol-3-yl)-2-chlorophenyl)-6-(1H-pyrazol-5-yl)picolinamide] | 4.46 | 978
2 | C=CC(=O)N1CCC[C@H](c2nc(-c3ccc(NC(=O)c4cccc(-c5ccn[nH]5)n4)c(C(F)(F)F)c3)no2)C1 [Compound 080, (S)-N-(4-(5-(1-acryloylpiperidin-3-yl)-1,2,4-oxadiazol-3-yl)-2-(trifluoromethyl)phenyl)-6-(1H-pyrazol-5-yl)picolinamide] | 8.25 | 3620
3 | C=CC(=O)N1CCC[C@H](c2nc(-c3ccc(NC(=O)c4cccc(-c5ccn[nH]5)n4)c(OC(F)(F)F)c3)no2)C1 [Compound 081, (S)-N-(4-(5-(1-acryloylpiperidin-3-yl)-1,2,4-oxadiazol-3-yl)-2-(trifluoromethoxy)phenyl)-6-(1H-pyrazol-5-yl)picolinamide] | 9 | 794
4 | C=CC(=O)N1C[C@@H](c2nc(-c3ccc(NC(=O)c4cccc(-c5ccn[nH]5)n4)cc3)no2)CC(F)(F)C1 [Compound 082] | 17.6 | > 10000
5 | C=CC(=O)N1C[C@@H](c2nc(-c3ccc(NC(=O)c4cccc(-c5ccn[nH]5)n4)cc3)no2)C[C@H](C(F)(F)F)C1 [Compound 083] | 209 | > 10000
6 | C=CC(=O)N1CCC[C@H](c2nc(-c3ccc(NC(=O)c4cccc(-c5ccn[nH]5)n4)c(OC)c3)no2)C1 [Compound 084, (S)-N-(4-(5-(1-acryloylpiperidin-3-yl)-1,2,4-oxadiazol-3-yl)-2-methoxyphenyl)-6-(1H-pyrazol-5-yl)picolinamide] | 1.67 | 204
7 | C=CC(=O)N1CCC[C@H](c2nc(-c3ccc(NC(=O)c4cccc(-c5[nH]ncc5C)n4)cc3)no2)C1 [Compound 085, (S)-N-(4-(5-(1-acryloylpiperidin-3-yl)-1,2,4-oxadiazol-3-yl)phenyl)-6-(4-methyl-1H-pyrazol-5-yl)picolinamide] | 6.82 | 8750
8 | C=CC(=O)N1CCC[C@H](c2nc(-c3ccc(NC(=O)c4cccc(-c5[nH]ncc5Cl)n4)cc3)no2)C1 [Compound 086, (S)-N-(4-(5-(1-acryloylpiperidin-3-yl)-1,2,4-oxadiazol-3-yl)phenyl)-6-(4-chloro-1H-pyrazol-5-yl)picolinamide] | 9.16 | > 10000
9 | C=CC(=O)N1CCC[C@H](c2nc(-c3ccc(NC(=O)c4cccc(-c5cc(C#N)n(C)c5)n4)cc3)no2)C1 [Compound 087] | 5720 | > 10000
10 | C=CC(=O)N1CCC[C@H](c2nc(-c3ccc(NC(=O)c4cccc(-c5[nH]ncc5C)n4)c(F)c3)no2)C1 [Compound 088, (S)-N-(4-(5-(1-acryloylpiperidin-3-yl)-1,2,4-oxadiazol-3-yl)-2-fluorophenyl)-6-(4-methyl-1H-pyrazol-5-yl)picolinamide] | 12.7 | > 10000
11 | C=CC(=O)N1CCC[C@H](c2nc(-c3ccc(NC(=O)c4cccc(-c5[nH]ncc5Cl)n4)c(F)c3)no2)C1 [Compound 089, (S)-N-(4-(5-(1-acryloylpiperidin-3-yl)-1,2,4-oxadiazol-3-yl)-2-fluorophenyl)-6-(4-chloro-1H-pyrazol-5-yl)picolinamide] | 21.1 | > 10000
12 | C=CC(=O)N1C[C@@H](c2nc(-c3ccc(NC(=O)c4cccc(-c5ccn[nH]5)n4)c(F)c3)no2)CC(F)(F)C1 [Compound 090, (S)-N-(4-(5-(1-acryloyl-5,5-difluoropiperidin-3-yl)-1,2,4-oxadiazol-3-yl)-2-fluorophenyl)-6-(1H-pyrazol-5-yl)picolinamide] | 6.62 | > 10000
